From ChEMBL document CHEMBL1146055, “Arylphthalazines. Part 2: 1-(Isoquinolin-5-yl)-4-arylamino phthalazines as potent inhibitors of VEGF receptors I and II” (Bioorg Med Chem Lett, 2006)

Assays:
[1] = molecular target: Vascular endothelial growth factor receptor 2 (Homo sapiens, UniProt P35968); experiment: Inhibition of VEGFR2 by HTRF assay
[2] = molecular target: Epidermal growth factor receptor (Homo sapiens) (UniProt P00533); details: 10 uM
Description: Inhibition of EGFR at 10 uM

[3] = molecular target: Insulin-like growth factor 1 receptor (Homo sapiens) (UniProt P08069); experiment: Inhibition of IGF1R at 10 uM
[4] = molecular target: Insulin receptor (Homo sapiens) (UniProt P06213); experiment: Inhibition of InsR at 10 uM
[5] = molecular target: Hepatocyte growth factor receptor (Homo sapiens) (UniProt P08581); experiment: Inhibition of c-Met at 10 uM
Chain of Hepatocyte growth factor receptor (Homo sapiens) (P08581 whole entry): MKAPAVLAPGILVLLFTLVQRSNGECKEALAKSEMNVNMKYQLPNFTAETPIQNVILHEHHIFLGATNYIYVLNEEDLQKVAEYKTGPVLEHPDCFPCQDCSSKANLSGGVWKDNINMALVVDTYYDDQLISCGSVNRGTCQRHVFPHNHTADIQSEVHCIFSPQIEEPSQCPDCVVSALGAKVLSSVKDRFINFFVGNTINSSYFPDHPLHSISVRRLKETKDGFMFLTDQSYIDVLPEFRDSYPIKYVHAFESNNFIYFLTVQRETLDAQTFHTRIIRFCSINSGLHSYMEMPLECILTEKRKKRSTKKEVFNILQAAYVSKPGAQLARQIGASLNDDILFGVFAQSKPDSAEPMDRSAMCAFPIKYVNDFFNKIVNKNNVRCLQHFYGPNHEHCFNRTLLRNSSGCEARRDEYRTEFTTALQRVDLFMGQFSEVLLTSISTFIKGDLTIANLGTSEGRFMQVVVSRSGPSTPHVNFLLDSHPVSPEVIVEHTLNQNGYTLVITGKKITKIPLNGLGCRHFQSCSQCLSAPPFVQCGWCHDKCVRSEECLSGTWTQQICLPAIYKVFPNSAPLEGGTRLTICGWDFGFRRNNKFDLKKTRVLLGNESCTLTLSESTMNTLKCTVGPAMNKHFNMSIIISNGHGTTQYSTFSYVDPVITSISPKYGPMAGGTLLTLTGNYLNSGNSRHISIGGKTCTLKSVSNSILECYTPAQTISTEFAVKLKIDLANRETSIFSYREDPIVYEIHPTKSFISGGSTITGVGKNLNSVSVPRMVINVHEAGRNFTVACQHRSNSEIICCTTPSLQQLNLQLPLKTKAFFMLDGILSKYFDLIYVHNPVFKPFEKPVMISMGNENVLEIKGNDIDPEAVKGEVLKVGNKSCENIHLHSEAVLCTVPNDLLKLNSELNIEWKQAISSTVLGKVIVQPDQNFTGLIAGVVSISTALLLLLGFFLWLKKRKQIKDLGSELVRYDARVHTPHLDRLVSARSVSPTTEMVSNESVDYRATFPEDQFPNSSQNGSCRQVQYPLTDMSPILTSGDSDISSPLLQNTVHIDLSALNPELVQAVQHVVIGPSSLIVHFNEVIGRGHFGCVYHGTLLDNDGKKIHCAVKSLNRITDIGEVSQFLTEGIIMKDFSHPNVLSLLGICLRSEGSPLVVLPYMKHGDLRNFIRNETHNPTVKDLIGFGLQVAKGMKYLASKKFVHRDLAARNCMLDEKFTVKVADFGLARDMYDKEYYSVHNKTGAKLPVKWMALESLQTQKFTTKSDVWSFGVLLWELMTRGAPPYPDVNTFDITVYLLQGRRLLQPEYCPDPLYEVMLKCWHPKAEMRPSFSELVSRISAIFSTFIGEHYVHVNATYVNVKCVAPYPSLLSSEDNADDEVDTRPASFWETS

[6] = molecular target: Receptor-type tyrosine-protein kinase FLT3 (Homo sapiens) (UniProt P36888); experiment: Inhibition of FLT3 at 10 uM
Chain of Receptor-type tyrosine-protein kinase FLT3 (Homo sapiens) (P36888 whole entry): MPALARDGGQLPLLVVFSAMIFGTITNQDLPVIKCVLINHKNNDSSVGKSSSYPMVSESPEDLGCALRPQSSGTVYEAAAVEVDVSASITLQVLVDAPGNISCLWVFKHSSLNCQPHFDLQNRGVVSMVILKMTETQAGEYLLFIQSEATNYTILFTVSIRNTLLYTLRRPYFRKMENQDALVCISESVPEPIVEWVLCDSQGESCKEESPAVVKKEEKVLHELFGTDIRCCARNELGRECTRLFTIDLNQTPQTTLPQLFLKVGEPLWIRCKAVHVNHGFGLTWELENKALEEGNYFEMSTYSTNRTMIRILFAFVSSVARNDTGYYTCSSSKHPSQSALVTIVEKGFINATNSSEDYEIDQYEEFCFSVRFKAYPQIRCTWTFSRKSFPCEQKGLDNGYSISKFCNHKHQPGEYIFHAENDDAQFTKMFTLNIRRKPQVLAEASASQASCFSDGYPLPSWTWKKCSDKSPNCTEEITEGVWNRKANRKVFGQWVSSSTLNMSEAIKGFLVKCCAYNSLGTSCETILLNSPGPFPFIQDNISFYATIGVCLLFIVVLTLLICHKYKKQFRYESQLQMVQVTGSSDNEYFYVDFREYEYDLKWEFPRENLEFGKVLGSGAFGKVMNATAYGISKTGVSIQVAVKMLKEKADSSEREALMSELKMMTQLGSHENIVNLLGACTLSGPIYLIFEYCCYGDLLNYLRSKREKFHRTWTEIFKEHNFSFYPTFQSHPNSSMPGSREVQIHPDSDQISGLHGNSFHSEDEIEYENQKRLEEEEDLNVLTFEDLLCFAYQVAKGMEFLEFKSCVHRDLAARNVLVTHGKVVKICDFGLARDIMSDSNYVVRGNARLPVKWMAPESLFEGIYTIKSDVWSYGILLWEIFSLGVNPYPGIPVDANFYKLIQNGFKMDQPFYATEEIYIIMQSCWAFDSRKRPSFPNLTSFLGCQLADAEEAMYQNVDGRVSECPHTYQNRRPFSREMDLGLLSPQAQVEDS

Chain of Vascular endothelial growth factor receptor 2 (P35968 whole entry): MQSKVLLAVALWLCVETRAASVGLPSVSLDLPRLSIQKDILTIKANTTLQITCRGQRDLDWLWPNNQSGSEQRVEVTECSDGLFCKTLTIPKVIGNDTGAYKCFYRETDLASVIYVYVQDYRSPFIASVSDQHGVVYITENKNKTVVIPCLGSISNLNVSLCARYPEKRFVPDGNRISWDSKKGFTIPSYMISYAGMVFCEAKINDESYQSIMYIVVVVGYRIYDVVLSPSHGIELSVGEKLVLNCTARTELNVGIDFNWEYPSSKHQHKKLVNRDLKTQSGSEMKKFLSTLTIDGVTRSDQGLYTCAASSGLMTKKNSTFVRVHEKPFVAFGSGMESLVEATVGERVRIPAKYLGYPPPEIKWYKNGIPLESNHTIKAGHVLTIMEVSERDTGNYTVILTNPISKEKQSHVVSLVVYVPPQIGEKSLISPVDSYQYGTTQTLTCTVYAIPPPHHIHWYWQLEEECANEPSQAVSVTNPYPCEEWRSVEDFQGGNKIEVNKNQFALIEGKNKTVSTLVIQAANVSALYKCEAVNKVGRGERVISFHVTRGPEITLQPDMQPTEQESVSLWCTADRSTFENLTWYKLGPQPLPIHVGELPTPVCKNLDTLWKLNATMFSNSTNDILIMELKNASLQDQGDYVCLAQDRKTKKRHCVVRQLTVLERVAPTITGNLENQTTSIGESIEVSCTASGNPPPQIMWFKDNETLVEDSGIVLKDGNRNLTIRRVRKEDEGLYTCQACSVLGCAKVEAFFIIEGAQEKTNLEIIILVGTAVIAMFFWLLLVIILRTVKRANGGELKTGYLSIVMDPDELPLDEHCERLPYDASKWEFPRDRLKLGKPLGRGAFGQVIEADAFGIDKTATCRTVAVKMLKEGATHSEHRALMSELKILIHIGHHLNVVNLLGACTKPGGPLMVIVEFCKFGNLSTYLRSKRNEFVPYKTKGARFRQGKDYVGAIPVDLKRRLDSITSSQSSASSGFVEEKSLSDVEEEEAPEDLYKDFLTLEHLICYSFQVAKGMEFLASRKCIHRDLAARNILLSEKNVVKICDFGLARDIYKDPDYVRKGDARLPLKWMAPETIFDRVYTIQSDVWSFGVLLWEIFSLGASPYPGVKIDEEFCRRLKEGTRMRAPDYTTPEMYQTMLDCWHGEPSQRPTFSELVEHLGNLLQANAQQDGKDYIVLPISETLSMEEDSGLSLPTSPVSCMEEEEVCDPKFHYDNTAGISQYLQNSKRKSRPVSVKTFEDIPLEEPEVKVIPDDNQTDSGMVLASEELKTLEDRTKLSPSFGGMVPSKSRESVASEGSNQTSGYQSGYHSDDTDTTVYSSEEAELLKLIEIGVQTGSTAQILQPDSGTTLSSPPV
Chain of Epidermal growth factor receptor (Homo sapiens) (P00533 whole entry): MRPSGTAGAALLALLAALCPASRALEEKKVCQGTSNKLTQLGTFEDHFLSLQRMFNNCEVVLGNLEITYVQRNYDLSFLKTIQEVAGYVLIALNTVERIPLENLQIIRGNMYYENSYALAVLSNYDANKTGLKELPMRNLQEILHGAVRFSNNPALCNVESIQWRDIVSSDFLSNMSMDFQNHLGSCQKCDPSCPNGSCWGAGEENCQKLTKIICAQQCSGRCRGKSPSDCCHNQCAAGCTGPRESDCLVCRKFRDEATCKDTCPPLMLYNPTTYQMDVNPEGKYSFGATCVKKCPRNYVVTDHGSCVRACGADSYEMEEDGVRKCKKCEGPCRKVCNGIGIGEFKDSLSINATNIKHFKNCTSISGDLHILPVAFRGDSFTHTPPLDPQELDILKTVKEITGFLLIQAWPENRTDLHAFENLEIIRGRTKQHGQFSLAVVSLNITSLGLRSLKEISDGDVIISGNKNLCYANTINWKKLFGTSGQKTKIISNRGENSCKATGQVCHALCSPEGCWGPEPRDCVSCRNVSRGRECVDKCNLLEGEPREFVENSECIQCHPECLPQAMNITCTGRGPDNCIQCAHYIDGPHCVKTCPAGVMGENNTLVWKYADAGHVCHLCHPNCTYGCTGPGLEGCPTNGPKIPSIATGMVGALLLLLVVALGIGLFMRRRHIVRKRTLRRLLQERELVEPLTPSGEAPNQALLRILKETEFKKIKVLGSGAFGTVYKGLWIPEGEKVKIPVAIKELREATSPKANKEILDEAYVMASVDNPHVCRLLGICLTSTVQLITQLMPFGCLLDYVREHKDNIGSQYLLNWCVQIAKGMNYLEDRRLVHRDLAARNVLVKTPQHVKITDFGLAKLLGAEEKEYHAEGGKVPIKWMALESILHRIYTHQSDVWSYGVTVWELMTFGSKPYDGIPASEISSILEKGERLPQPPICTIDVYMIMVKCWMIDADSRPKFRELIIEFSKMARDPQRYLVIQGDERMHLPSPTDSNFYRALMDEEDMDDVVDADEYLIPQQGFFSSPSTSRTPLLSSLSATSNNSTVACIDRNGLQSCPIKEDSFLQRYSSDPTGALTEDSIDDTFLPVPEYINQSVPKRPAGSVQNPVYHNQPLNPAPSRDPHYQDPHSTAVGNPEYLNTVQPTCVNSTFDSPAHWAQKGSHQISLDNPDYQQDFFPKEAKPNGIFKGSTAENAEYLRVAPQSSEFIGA

Q: Which IC50 [1] does the source give for `Cn1cc(-c2nnc(Nc3ccc(Cl)cc3)c3ccccc23)cn1` here?
A: > 10 µM

Q: For `Clc1ccc(Nc2nnc(-c3cccc4cnccc34)c3ccccc23)cc1`, which inhibition [2] is on record?
A: 13%

Q: What about the inhibition [3] of the same molecule?
A: 25%

Q: And the inhibition [4]?
A: 10%

Q: And the IC50 [1]?
A: 0.048 µM

Q: What about the inhibition [5] of the same molecule?
A: 2%

Q: And the inhibition [6]?
A: 33%

Q: `Clc1ccc(Nc2nnc(-c3cn[nH]c3)c3ccccc23)cc1` was tested. Which IC50 [1] did it give?
A: > 10 µM
